# Laboratory results taken from ChEMBL document CHEMBL5390231, “Development of small molecule inhibitors targeting RNA helicase DHX33 as anti-cancer agents” (Bioorg Med Chem Lett, 2023).
# Experiments:
# [1] = molecular target: T1, Putative pre-mRNA-splicing factor ATP-dependent RNA helicase DHX32 (Homo sapiens, UniProt Q7L7V1); experiment: Inhibition of N-terminal thioredoxin-tagged human recombinant DHX32 transformed in Escherichia coli BL21(DE3)pLysS cells
# T1 sequence (Q7L7V1 whole entry): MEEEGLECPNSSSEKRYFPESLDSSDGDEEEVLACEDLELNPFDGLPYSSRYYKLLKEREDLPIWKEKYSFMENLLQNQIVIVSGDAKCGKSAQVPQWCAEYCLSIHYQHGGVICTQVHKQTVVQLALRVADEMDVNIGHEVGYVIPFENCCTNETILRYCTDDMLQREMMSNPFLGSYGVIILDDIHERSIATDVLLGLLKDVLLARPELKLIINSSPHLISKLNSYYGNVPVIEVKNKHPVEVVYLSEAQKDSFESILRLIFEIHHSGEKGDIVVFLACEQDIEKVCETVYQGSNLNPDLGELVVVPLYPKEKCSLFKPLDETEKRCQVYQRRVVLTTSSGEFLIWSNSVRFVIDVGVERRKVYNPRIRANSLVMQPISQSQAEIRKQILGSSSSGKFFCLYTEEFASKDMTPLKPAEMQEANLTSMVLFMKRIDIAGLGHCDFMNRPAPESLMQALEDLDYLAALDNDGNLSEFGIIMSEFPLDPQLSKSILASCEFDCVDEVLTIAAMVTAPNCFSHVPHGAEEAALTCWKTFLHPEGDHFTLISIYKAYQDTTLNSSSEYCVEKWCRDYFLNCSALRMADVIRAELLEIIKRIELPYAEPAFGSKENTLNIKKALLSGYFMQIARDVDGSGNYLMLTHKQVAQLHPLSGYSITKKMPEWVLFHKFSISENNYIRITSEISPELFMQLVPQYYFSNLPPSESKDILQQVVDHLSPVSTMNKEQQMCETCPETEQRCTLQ
# [2] = molecular target: T2, Probable ATP-dependent RNA helicase DDX6 (Homo sapiens, UniProt P26196); experiment: Inhibition of N-terminal thioredoxin-tagged human recombinant DDX6 transformed in Escherichia coli BL21(DE3)pLysS cells
# T2 sequence (P26196 whole entry): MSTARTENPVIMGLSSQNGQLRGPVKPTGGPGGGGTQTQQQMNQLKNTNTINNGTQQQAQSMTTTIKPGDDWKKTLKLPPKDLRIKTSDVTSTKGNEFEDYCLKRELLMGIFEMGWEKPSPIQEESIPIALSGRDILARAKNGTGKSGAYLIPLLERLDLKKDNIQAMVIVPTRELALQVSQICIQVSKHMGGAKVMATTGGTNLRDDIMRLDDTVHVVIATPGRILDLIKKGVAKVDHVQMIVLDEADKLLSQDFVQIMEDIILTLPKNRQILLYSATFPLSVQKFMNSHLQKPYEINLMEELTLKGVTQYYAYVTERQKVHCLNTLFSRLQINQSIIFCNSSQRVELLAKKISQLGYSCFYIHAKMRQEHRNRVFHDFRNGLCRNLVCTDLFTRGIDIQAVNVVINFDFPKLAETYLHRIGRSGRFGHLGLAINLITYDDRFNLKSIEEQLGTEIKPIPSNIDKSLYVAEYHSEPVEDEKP
# [3] = molecular target: ATP-dependent RNA helicase DHX15 (Homo sapiens, UniProt O43143); experiment: Inhibition of N-terminal thioredoxin-tagged human recombinant DHX15 transformed in Escherichia coli BL21(DE3)pLysS cells
# Chain of ATP-dependent RNA helicase DHX15 (O43143 whole entry): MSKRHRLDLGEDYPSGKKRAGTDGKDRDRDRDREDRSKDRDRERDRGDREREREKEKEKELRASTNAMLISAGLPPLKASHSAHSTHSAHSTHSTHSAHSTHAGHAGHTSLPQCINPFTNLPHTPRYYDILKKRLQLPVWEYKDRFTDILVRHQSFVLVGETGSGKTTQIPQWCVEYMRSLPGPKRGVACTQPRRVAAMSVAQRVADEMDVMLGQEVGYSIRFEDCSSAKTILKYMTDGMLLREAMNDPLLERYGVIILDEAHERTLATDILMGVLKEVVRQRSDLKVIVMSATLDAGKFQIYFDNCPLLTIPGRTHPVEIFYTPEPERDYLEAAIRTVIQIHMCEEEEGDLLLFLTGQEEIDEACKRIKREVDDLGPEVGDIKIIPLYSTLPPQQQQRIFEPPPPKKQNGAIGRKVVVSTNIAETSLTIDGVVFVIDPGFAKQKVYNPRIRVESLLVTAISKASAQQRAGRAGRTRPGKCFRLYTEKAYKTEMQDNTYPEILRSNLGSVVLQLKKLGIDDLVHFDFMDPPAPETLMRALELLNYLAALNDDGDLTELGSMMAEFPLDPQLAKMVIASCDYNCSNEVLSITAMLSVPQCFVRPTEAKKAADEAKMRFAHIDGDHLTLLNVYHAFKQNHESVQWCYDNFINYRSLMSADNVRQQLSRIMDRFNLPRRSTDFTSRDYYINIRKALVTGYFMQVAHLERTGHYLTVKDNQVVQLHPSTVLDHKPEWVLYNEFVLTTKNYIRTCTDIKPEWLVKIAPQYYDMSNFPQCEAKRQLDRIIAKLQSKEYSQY
# [4] = molecular target: T3, Probable ATP-dependent RNA helicase DHX40 (Homo sapiens, UniProt Q8IX18); experiment: Inhibition of N-terminal thioredoxin-tagged human recombinant DHX40 transformed in Escherichia coli BL21(DE3)pLysS cells
# T3 sequence (Q8IX18 whole entry): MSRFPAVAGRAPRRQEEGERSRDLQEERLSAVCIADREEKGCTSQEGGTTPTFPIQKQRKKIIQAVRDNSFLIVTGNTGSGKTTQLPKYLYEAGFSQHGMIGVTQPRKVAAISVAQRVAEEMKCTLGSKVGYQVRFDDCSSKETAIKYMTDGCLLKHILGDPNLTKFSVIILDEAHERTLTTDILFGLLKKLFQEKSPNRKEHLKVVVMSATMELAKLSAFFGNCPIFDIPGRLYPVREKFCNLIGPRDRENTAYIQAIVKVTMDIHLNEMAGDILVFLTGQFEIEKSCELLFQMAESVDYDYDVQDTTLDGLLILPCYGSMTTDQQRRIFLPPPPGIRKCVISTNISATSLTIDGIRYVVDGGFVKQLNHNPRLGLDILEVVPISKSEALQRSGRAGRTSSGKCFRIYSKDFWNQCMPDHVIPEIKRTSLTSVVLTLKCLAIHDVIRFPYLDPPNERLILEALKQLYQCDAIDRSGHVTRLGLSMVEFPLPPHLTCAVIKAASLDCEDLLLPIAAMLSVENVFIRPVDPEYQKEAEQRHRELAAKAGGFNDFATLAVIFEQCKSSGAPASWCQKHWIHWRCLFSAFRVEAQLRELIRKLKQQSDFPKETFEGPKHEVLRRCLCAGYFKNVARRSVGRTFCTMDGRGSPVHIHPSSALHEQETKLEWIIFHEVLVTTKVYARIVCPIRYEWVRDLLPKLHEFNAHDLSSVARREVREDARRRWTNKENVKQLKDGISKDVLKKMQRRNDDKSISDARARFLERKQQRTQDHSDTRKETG
# [5] = molecular target: T4, Probable ATP-dependent RNA helicase DDX59 (Homo sapiens, UniProt Q5T1V6); experiment: Inhibition of C-terminal 6xHis-tagged human recombinant DDX59 transformed in Escherichia coli BL21(DE3)pLysS cells
# T4 sequence (Q5T1V6 whole entry): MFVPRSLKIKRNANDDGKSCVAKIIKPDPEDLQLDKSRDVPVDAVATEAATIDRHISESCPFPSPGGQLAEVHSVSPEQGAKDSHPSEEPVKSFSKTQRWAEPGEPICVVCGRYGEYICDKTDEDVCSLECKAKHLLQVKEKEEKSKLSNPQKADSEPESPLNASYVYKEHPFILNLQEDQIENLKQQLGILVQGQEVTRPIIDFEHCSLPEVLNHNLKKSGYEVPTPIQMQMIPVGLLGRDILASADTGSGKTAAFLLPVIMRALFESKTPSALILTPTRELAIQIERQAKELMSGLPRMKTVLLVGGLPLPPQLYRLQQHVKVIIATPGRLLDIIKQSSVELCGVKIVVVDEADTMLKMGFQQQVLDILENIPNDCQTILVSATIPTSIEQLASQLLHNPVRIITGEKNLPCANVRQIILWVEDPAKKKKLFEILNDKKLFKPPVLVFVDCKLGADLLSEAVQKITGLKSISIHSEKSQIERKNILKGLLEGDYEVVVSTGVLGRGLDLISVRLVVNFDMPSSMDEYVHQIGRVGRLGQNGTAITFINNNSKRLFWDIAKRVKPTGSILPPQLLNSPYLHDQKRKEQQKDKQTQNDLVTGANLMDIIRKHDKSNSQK
compound,measurement,setting,value
COc1ccc2nc(NC(=O)c3cc(C)n(-c4sc(C)cc4C#N)c3C)[nH]c2c1,IC50,[1],> 100 µM
same,IC50,[2],> 100 µM
same,IC50,[3],6.3 µM
same,IC50,[4],> 100 µM
same,IC50,[5],> 100 µM
